From patent US20090203661A1, “Betulinic acid, derivatives and analogs thereof and uses therefor” (priority 2006, published 2009)

Key:
PPARγ = biological target: T1, PPARγ (Homo sapiens, UniProt P37231); experiment: Mammalian two-hybrid assay (VP-PPARγ / GAL4-coactivator) in SW480 cells; format: cell-based
T1 construct: containing the DEF region of the PPARγ (amino acids 183-505) fused to the pVP16 expression vector; expressed in transfected cells; host or cells: SW480 colon cancer cells; plasmid provided by Dr. Shigeaki Kato (University of Tokyo)
T1 sequence (P37231 183-505): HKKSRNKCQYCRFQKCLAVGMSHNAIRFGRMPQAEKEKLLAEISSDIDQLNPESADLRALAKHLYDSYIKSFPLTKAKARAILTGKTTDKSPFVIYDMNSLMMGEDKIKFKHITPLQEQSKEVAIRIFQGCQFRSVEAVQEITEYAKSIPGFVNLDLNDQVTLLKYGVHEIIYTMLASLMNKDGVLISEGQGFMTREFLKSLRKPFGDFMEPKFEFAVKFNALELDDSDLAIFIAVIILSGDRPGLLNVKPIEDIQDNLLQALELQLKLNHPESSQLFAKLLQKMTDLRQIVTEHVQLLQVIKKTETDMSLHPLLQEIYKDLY
Protocol: The GAL4 reporter construct containing 5×GAL4 response elements (p GAL4) was provided by Dr. Marty Mayo (University of […], Chapel Hill, N.C.). The GAL4-coactivator fusion plasmids pM-SRC1, pMSRC2, pMSRC3, pM-DRIP205, pM-CARM-1 and PPARγ-VP16 fusion plasmid (Vp-PPARγ) containing the DEF region of the PPARγ (amino acids 183-505) fused to the pVP16 expression vector were provided by Dr. Shigeaki Kato (University of Tokyo, Tokyo, Japan). SW480 colon cancer cells were plated in 12-well tissue culture plates at 1×10^5 cells per well in DMEM/Ham's F-12 medium supplemented with 2.5% charcoal stripped FBS.
After allowing them to adhere overnight, transient transfections were carried out with GAL4-Luc (0.4 μg), β-GAL (0.04 μg), VP-PPARγ (0.04 μg), pM-SRC1 (0.04 μg), pM-PGC-1 (0.04 μg), pM-SMRT (0.04 μg), pM-TRAP220 (0.04 μg), pM-DRIP205 (0.04 μg), and pMCARM1 (0.04 μg) using LipofectAMINE2000 (Invitrogen) following the manufacturer's guidelines. After 6 hr of transfection, cells were treated in triplicate either with vehicle (DMSO) or the indicated compound suspended in complete medium for 20-24 hr. One hundred μL per well of 1× Reporter Lysis Buffer (Promega) was used to lyse the cells and 30 μl of this lysate was used to perform the luciferase and β-GAL assays using Lumicount (Perkin-Elmer Life and Analytical Sciences, Boston, Mass.). The luciferase activities obtained were normalized to the β-gal activity.

p21 promoter = p21 promoter luciferase transactivation in Panc-28 cells; format: cell-based, human; settings: for transactivation, p21-luc(Fl) (−2325 to +8): Panc-28; for effect of T007 on induced p21-luc(Fl) luciferase activity: cotreatment with T007
Protocol: Cells were seeded onto the 12-well plates and 0.4 μg of GAL4-Luc, 0.04 μg of β-GAL, 0.04 μg of GAL4DBD-PPARγ, and 0.4 μg of p21-luc(FL) containing −2325 to +8 insert, 0.4 μg of p21-luc (−124) containing −124 to +8 insert and 0.4 μg of p21-LUC (−60) containing −60 to +8 insert were transfected using LipofectAMINE reagent (Invitrogen) following the manufacturer's protocol. Cells were treated either with vehicle or respective compounds suspended in complete medium after 6 hr of transfection. Cell lysate is extracted after 20-22 hr by adding 100 μl of 1× reporter lysis buffer per well and 30 μl of this extract is used to quantitate the luciferase activity using Lumicount (Perkin-Elmer Life and Analytical Sciences). Each experiment is done in triplicate and the results are normalized to the β-GAL activity.

SW480 cells [1] = experiment: Caveolin-1 expression (Western blot) in SW480 cells; format: cell-based, human; settings: SW480, 72 hr
Protocol: SW480, HT-29, HCT-15 and Panc-28 (3×10^5) colon cancer cells were seeded in 6-well tissue culture plates in DMEM/Ham's F-12 medium containing 2.5% charcoal-stripped FBS. Protein is extracted from the cells treated either with vehicle or indicated compounds suspended for 24 hr except for caveolin-1 protein which was done for 72 hr. Samples were extracted in high salt buffer [50 mmol/L HEPES, 500 mmol/L NaCl, 1.5 mmol/L MgCl2, 1 mmol/L EGTA, 10% glycerol, and 1% Triton X-100 (pH 7.5), and 5 μL/mL protease inhibitor cocktail (Sigma-Aldrich)]. Samples were incubated at 100° C. for 2 min, separated on either 10% or 12% SDS-PAGE gels and then transferred to polyvinylidene difluoride membrane (PVDF; Bio-Rad, Hercules, Calif.). The PVDF membrane was blocked in 5% TBST-Blotto (10 mM Tris HCl, 150 mM NaCl, pH 8.0, 0.05% Triton X-100, and 5% nonfat dry milk) for about 30 min and was then incubated in fresh 5% TBST-Blotto with 1:1000 for caveolin-1 (Santa Cruz Biotechnology, Santa Cruz, Calif.), 1:1000 for p21 (BD Pharmingen, Frank lakes, NJ) and 1:10000 for β-actin (Sigma) primary antibody overnight with gentle shaking at 4° C. After washing with TBST for 10 min, the membrane was incubated with respective secondary antibody (1:5000) (Santa cruz, Calif.) in 5% TBST-Blotto for 3 hr. The membrane is then washed with TBST for 10 min, incubated with chemiluminiscence reagent from Perkin Elmer for one min and then exposed to Kodak X-OMAT AR autoradiography film (Eastman Kodak, Rochester, N.Y.).

HT-29 cells = experiment: miR-27a and ZBTB10 mRNA expression in HT-29 cells; format: cell-based, human
SW480 cells [2] = experiment: Apoptosis (PARP cleavage, Western blot) in SW480 cells; format: cell-based, human; settings: SW480, 24 hr
Protocol: (§1) Induction of KLF4 in HT-29 (FIG. 12A) and SW480 (FIG. 12B) cells. Cells were treated with different concentrations of CDODA isomers or T007 alone or in combination, and KLF4 mRNA levels were determined by real time PCR. […] KLF4 mRNA levels were not induced in SW480 cells by BA derivatives. FIGS. 12C-12D show induction of apoptosis. Panc28 (FIG. 12C) and SW480 (FIG. 12D) cells were treated for 24 hr with betulinic acid and related compounds and whole cell lysates were examined by Western blot analysis.
(§2) SW480, HT-29, HCT-15 and Panc-28 (3×10^5) colon cancer cells were seeded in 6-well tissue culture plates in DMEM/Ham's F-12 medium containing 2.5% charcoal-stripped FBS. Protein is extracted from the cells treated either with vehicle or indicated compounds suspended for 24 hr except for caveolin-1 protein which was done for 72 hr. Samples were extracted in high salt buffer [50 mmol/L HEPES, 500 mmol/L NaCl, 1.5 mmol/L MgCl2, 1 mmol/L EGTA, 10% glycerol, and 1% Triton X-100 (pH 7.5), and 5 μL/mL protease inhibitor cocktail (Sigma-Aldrich)]. Samples were incubated at 100° C. for 2 min, separated on either 10% or 12% SDS-PAGE gels and then transferred to polyvinylidene difluoride membrane (PVDF; Bio-Rad, Hercules, Calif.). […]

Panc28 cells = experiment: Apoptosis (PARP cleavage, Western blot) in Panc28 cells; format: cell-based, human; settings: Panc28, 24 hr
Protocol: as §1, §2

RKO colon cancer cells = experiment: Western blot of proapoptotic responses and Sp proteins in RKO cells; format: cell-based
Protocol: RKO cells were […] with BA or CN-BA for 24 hr and whole cell lysates were examined by Western blot analysis.
RKO colon cancer cells were treated with BA/CN-BA for 24 hr (FIG. 15A) or 48 hr (FIG. 15B) and Miapaca-2 pancreatic cancer cells were treated with BA/CN-BA for 24 hr (FIG. 15C). Whole cell lysates were examined by Western blot analysis.

For `COC(=O)C12CCC(C(C)C)C1C1CCC3C4(C)C=C(C#N)C(=O)C(C)(C)C4CCC3(C)C1(C)CC2` (stereo not shown) [CN-BA-Me, Methyl 2-cyano-lup-1-en-3-oxo-20-oate], the “activation of GAL4-CARM1” value (PPARγ) was “activated”, the “luciferase activity, VP-PPARγ with GAL4 PGC-1 and GAL4 SRC-1” value (PPARγ) was “significantly induced luciferase activity” and the “transactivation, p21-luc(Fl) (−2325 to +8)” value (p21 promoter) was “induce transactivation”. The “effect of T007 on induced p21-luc(Fl) luciferase activity” value (p21 promoter) was “inhibited”, the caveolin-1 induction (SW480 cells [1]) was “did not induce caveolin-1 expression” and the caveolin-1 protein level (SW480 cells [1]) was “decreased expression”. For the same compound, the ZBTB10 expression (HT-29 cells) was “increased expression of ZBTB10” and the miR-27a expression (HT-29 cells) was “decreased expression of miR-27a”.
`CC(C)C1CCC2(C(=O)O)CCC3(C)C(CCC4C5(C)C=C(C#N)C(=O)C(C)(C)C5CCC43C)C12` (stereo not shown) [CN-BA] was tested, and the “luciferase activity, VP-PPARγ with GAL4 PGC-1 and GAL4 SRC-1” value (PPARγ) was “significantly induced luciferase activity”, the “transactivation, p21-luc(Fl) (−2325 to +8)” value (p21 promoter) was “induce transactivation” and the “concentration giving significant induction of p21-luc(60)” value (p21 promoter; construct lacking GC-rich sites 3 and 4) was 7.5 µM. The “effect of T007 on induced p21-luc(Fl) luciferase activity” value (p21 promoter) was “inhibited”, the caveolin-1 induction (SW480 cells [1]) was “did not induce caveolin-1 expression” and the caveolin-1 protein level (SW480 cells [1]) was “decreased expression”. The “caspase-dependent PARP cleavage” value (SW480 cells [2]) was “induced caspase-dependent PARP cleavage”, the “caspase-dependent PARP cleavage” value (Panc28 cells) was “induced caspase-dependent PARP cleavage” and the Sp protein expression (RKO colon cancer cells; 24 and 48 hr) was “decrease Sp protein expression”. The “ATF3, JNK phosphorylation, CHOP and DR5” value (RKO colon cancer cells; 24 hours) was “activate”, the proapoptotic responses (RKO colon cancer cells; 24 hours) was “activate proapoptotic responses” and the ZBTB10 expression (HT-29 cells) was “increased expression of ZBTB10”. The miR-27a expression (HT-29 cells) was “decreased expression of miR-27a”.
For `C=C(C)[C@@H]1CC[C@]2(C(=O)O)CC[C@]3(C)[C@H](CC[C@@H]4[C@@]5(C)CC[C@H](O)C(C)(C)[C@@H]5CC[C@]43C)[C@@H]12` [betulinic acid, Betulinic acid], the “concentrations decreasing Sp proteins” value (RKO colon cancer cells; 48 hr) was 1 to 5 µM.
